Experimental data from PubChem BioAssay (NCI).
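Step 1: Grow cells in 96-well plates. Step 2: Expose to compound for 48 hours at 5 concentrations. Step 3: Interpolate endpoints linearly; if unreached, use highest concentration. GI50: concentration for 50% inhibition of growth. TGI marks complete inhibition of growth.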

Tests used:
Test in all cases: DTP human tumour cell line panel, 48 h
COLO 205 colon = system: COLO 205 colon
SF-295 CNS = system: SF-295 CNS
786-0 renal = system: 786-0 renal
HT29 colon = system: HT29 colon
SF-539 CNS = system: SF-539 CNS
CCRF-CEM leukemia = system: CCRF-CEM leukemia
HOP-92 NSCLC = system: HOP-92 NSCLC
T-47D breast = system: T-47D breast
MOLT-4 leukemia = system: MOLT-4 leukemia
NCI-H460 lung = system: NCI-H460 lung

SMILES | GI50 (COLO 205 colon) | TGI (COLO 205 colon) | GI50 (SF-295 CNS) | TGI (SF-295 CNS) | GI50 (786-0 renal) | TGI (786-0 renal) | GI50 (HT29 colon) | TGI (HT29 colon) | GI50 (SF-539 CNS) | TGI (SF-539 CNS) | GI50 (CCRF-CEM leukemia) | TGI (CCRF-CEM leukemia) | GI50 (HOP-92 NSCLC) | TGI (HOP-92 NSCLC) | GI50 (T-47D breast) | TGI (T-47D breast) | GI50 (MOLT-4 leukemia) | TGI (MOLT-4 leukemia) | GI50 (NCI-H460 lung) | TGI (NCI-H460 lung)
C[C@]12CC[C@@H]3c4ccc(O)cc4CC[C@H]3[C@@H]1CC[C@@H]2NS(=O)(=O)c1cccc(Br)c1 | 1.89 µM | 3.38 µM | 3.19 µM | 11.7 µM | 3.25 µM | 10.4 µM | 3.76 µM | 12.7 µM | 2.6 µM | 8.8 µM | 3.06 µM | 20.3 µM | 1.85 µM | 6.44 µM | 5.05 µM | 17.6 µM | 2.59 µM | 12.7 µM | 2.53 µM | 6.67 µM
O=C(c1cccs1)c1c(C(F)(F)F)n([O-])c2cc(F)c(F)cc2[n+]1=O | 3.15 µM | 5.9 µM | 3.71 µM | 7.3 µM | 4.44 µM | 8.75 µM | 9.5 µM | 50 µM | 0.314 µM | 0.588 µM | 0.18 µM | 0.729 µM | 1.46 µM | 4.24 µM | 2.25 µM | 5.96 µM | 0.498 µM | 7.84 µM | 2.03 µM | 12.5 µM
CS(=O)(=O)c1ccc(C(F)(F)F)cc1NC(=O)Nc1cnc(Oc2ccc(-c3cc(Cl)cnc3N)cc2)nc1 | 1.98 µM | 4.77 µM | 1.99 µM | 5.71 µM | 2.4 µM | 7 µM | 2.24 µM | 7.52 µM | 1.94 µM | 4.96 µM | 3.22 µM | > 100 µM | 1.75 µM | 5.12 µM | 2.05 µM | 7.7 µM | 2.12 µM | 6.53 µM | 2.07 µM | 4.42 µM
NC1=C(c2nc(-c3cc4ccccc4oc3=O)cs2)C(c2ccco2)c2c(c3ccccc3oc2=O)O1 (stereo not given) | > 150 mg/L | > 150 mg/L | 130 mg/L | > 150 mg/L | 20.2 mg/L | 71.3 mg/L | > 150 mg/L | > 150 mg/L | 96.9 mg/L | > 150 mg/L | 53.8 mg/L | 147 mg/L | 53.3 mg/L | > 150 mg/L | > 150 mg/L | > 150 mg/L | 119 mg/L | > 150 mg/L | > 150 mg/L | > 150 mg/L
Cc1cc(NC(=O)CCc2ccc(N3C(N)=NC(N)=NC3(C)C)cc2)ccc1S(=O)(=O)F | 0.358 µM | > 100 µM | 2.61 µM | > 100 µM | 0.291 µM | > 100 µM | < 0.0374 µM | > 100 µM | 1 µM | 26.4 µM | 0.243 µM | > 100 µM | > 39 µM | > 100 µM | 10.6 µM | > 100 µM | 1.27 µM | > 100 µM | < 0.0246 µM | 36.1 µM
O=[N+]([O-])c1ccc2nc(N/N=C/c3ccc(O)cc3)sc2c1 | 12.4 µM | 32.1 µM | 5.61 µM | > 100 µM | 6.43 µM | 60.5 µM | 8.31 µM | 28 µM | 3.2 µM | > 100 µM | 3.28 µM | > 100 µM | 2.17 µM | 8.96 µM | 3.01 µM | 13.2 µM | 2.96 µM | > 100 µM | 4.18 µM | 24.2 µM
Cc1cc(N2CCN(C)CC2)nc(NC2CCCC(Nc3ccnc4cc(Cl)ccc34)C2)n1 (stereo not given) | 1.68 µM | 3.45 µM | 1.68 µM | 3.25 µM | 1.81 µM | 4.15 µM | 2.14 µM | 6.16 µM | 1.68 µM | 3.31 µM | 1.78 µM | 7.34 µM | 1.67 µM | 3.49 µM | 1.91 µM | 4.6 µM | 1.77 µM | 7.59 µM | 2.16 µM | 5.07 µM
O=C1OC(c2ccc([N+](=O)[O-])cc2)=N/C1=C\c1ccc(O)cc1 | – | > 100 µM | – | > 100 µM | – | > 100 µM | – | > 100 µM | – | > 100 µM | – | > 100 µM | – | > 100 µM | – | > 100 µM | – | > 100 µM | – | > 100 µM
C=CCSc1n[nH]c(-c2cccs2)n1 | > 100 µM | > 100 µM | > 100 µM | > 100 µM | > 100 µM | > 100 µM | > 100 µM | > 100 µM | > 100 µM | > 100 µM | > 100 µM | > 100 µM | > 100 µM | > 100 µM | > 100 µM | > 100 µM | > 100 µM | > 100 µM | > 100 µM | > 100 µM
CCN(C)S(=O)(=O)Nc1cccc(Nc2ncnc3cc(NC(=O)CCl)ccc23)c1Cl | 2.5 µM | 6.51 µM | 3.5 µM | 7.4 µM | 0.973 µM | 4.04 µM | 1.33 µM | 4.83 µM | 3.43 µM | 6.77 µM | 0.656 µM | 3.77 µM | 3.4 µM | 7.95 µM | 5.01 µM | 13.2 µM | 0.926 µM | 8.83 µM | 3.57 µM | 8.6 µM
C=C1CC2(OC1=O)c1ccccc1CCc1ccccc12 | – | 3.57 µM | – | 29.8 µM | – | 3.17 µM | – | 3.6 µM | – | 4.06 µM | – | 2.49 µM | – | 3.14 µM | – | 3.6 µM | – | 7.18 µM | – | 26.7 µM
